pIC50: −log10 of the molar value. In brackets after ≈: the same amount, converted by molar mass.
How the values were obtained:
[1] = test system: mifepristone-induced mouse model of PTB; conditions: mifepristone 150 μg; prior study; cited from earlier work
mouse myometrial tissue = assay: Ex vivo isometric myometrial contractility organ bath assay; conditions: for Emax: read-out: Emax, inhibition of myometrial contractions; for pIC50: read-out: IC50, inhibition of myometrial contractions
[2] = test system: mifepristone-induced mouse model of PTB; assay: In vivo therapeutic efficacy in mifepristone-induced mouse model of PTB
[3] = Intrinsic clearance in liver microsomes; type: in vitro ADME; conditions: mouse
MDCK permeability = type: in vitro ADME; conditions: dog
primary myometrial cells = assay: Ca2+-mobilization assay, concentration-response; type: cell-based; conditions: Homo sapiens, read-out: Emax, Myometrial, inhibition of Ca2+-mobilization
Solubility = type: physicochemical
[4] = test system: primary aortic vascular smooth muscle cells (VSMCs); assay: Ca2+-mobilization assay, concentration-response; type: cell-based, human
[5] = Intrinsic clearance in liver microsomes; type: in vitro ADME; conditions: human
myometrial cells = assay: Combination high-throughput Ca2+-mobilization assay; conditions: for synergy in combination Ca2+-mobilization assay: 8 x 8 dose matrices, Combenefit
human myometrial tissue = assay: Ex vivo isometric myometrial contractility organ bath assay; conditions: read-out: Emax, inhibition of myometrial contractions
[6] = In vitro therapeutic index; conditions: smallest cell viability IC50 among the three cell types / Ca2+ assay IC50
[7] = Human plasma protein binding; type: in vitro ADME
[8] = Intrinsic clearance in liver microsomes; type: in vitro ADME; conditions: rat
CD-1 pregnant mice = assay: Minimal effective dose of mifepristone to induce PTB; type: in vivo, mouse; conditions: s.c. on day 15 of pregnancy

SMILES | Emax (mouse myometrial tissue) [%] | pIC50 (mouse myometrial tissue) | microsomal CLint [3] [µL/min/mg] | Papp (MDCK permeability) [×10⁻⁶ cm/s] | Emax (primary myometrial cells) [%] | solubility (Solubility) [µM] | microsomal CLint [5] [µL/min/mg] | synergy in combination Ca2+-mobilization assay (myometrial cells) | fold enhancement in potency in combination (myometrial cells; in combination with nifedipine) | fold improvement of efficacy in combination vs single-agent (myometrial cells; in combination with nifedipine) [fold] | TI (therapeutic index) [6] | fraction unbound [7] | microsomal CLint [8] [µL/min/mg] | further results
COC(=O)C1=C(C)NC(C)=C(C(=O)OC)C1c1ccccc1[N+](=O)[O-] [nifedipine] | – | – | – | – | – | – | – | – | – | – | – | – | – | delivery occurring post-mifepristone administration [1]: ≤ 25 h
COc1c(-c2coc3cc4c(cc3c2=O)CC(O)C(C)(C)O4)ccc2c1C=CC(C)(C)O2 (stereo not drawn) [Mundulone, mundulone] | 70 | 5.00 | 47.1 | 49.4 | 80.5 | 21 to 40 (≈ 9.12 to 17.4 µg/mL) | < 20 | displayed synergism with atosiban and nifedipine | 2–3 fold | 6 | 0.8 | 0.007 | 30.7 | timing of delivery ([2]; 30 μg mifepristone, 6.5, 13, or 26 mg/kg twice daily s.c., dose-dependently, p = 0.0457): delayed the timing of delivery; mortality ([2]; 26 mg/kg twice daily until the evening of day 17, 30 μg mifepristone): 100%; signs of impaired health or mortality in treated mice ([2]; single-agent, twice daily): did not show signs of impaired health or mortality until treated with 26 mg/kg twice daily for two days; IC50, Fold difference ([4]; aorta VSMCs vs myometrial cells): 2; fold improvement of efficacy in combination vs single-agent (myometrial cells; in combination with atosiban): 2 fold; fold improvement of potency in combination vs single-agent (myometrial cells; with either atosiban (FR 3.7:1) or nifedipine (FR 1:4.4)): 2–3 fold; Emax (human myometrial tissue): 57%
COc1c(-c2coc3cc4c(cc3c2=O)CC(OC(C)=O)C(C)(C)O4)ccc2c1C=CC(C)(C)O2 (stereo not drawn) [MA, mundulone acetate] | 27 | < 4.00 | 886 | 22.1 | 44.5 | 11 to 20 | 27.2 | exhibited synergistic efficacy with only nifedipine | 2–3 fold | 6 | 8.8 | 0.001 | 586 | Emax, % difference ([4]; myometrial cells vs aorta VSMCs): 70%
CC#C[C@]1(O)CC[C@H]2[C@@H]3CCC4=CC(=O)CCC4=C3[C@@H](c3ccc(N(C)C)cc3)C[C@@]21C [mifepristone] | – | – | – | – | – | – | – | – | – | – | – | – | – | lowest dose required for 100% PTB rates (CD-1 pregnant mice): 30 µg

— PMC10712649 (Pharmacological research, 2023)
